{"source": "patent US20100286038A1", "about": "“FORMULATION CONTAINING CYCLIN-DEPENDENT KINASE INHIBITING COMPOUND AND METHOD OF TREATING TUMORS USING THE SAME” (priority 2007, published 2010)", "key": {"[1]": {"biological_target": "T1, PKCα (Homo sapiens, UniProt P17252)", "T1 construct": "purchased Upstate", "assay": "Upstate kinase Profiler counter-screening", "type": "biochemical"}, "[2]": {"system": "A2780 cells", "conditions": "16 hours exposure", "description": "Accumulation of the p85 PARP product was also monitored to assess activation of caspases and correlate inhibition of CDKs with the onset of apoptosis."}, "[3]": {"system": "A2780 cells", "assay": "in-cell inhibition of thymidine incorporation", "type": "cell-based", "conditions": "Homo sapiens"}, "[4]": {"biological_target": "T2, PKCε (Homo sapiens, UniProt Q02156)", "T2 construct": "purchased Upstate", "T2 sequence (Q02156 1-737)": "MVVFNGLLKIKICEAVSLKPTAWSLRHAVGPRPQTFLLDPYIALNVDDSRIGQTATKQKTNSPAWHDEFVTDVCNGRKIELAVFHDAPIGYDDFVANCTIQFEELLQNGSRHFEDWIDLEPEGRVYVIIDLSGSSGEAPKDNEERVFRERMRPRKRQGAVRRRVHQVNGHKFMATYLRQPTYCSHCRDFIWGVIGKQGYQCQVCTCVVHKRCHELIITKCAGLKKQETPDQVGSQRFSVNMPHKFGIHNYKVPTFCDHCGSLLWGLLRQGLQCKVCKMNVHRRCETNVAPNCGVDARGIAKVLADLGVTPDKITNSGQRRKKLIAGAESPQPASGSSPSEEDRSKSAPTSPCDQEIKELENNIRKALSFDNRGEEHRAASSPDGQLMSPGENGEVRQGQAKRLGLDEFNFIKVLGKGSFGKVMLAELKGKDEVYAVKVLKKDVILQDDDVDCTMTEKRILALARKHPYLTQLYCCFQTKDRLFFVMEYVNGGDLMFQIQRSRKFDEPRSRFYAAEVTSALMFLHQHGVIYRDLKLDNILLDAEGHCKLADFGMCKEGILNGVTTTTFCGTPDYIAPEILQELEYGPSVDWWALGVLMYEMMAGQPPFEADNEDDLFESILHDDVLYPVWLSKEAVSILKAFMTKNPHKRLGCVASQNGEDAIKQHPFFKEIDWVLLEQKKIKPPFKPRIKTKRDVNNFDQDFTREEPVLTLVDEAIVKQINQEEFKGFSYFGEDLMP", "assay": "Upstate kinase Profiler counter-screening", "type": "biochemical"}, "[5]": {"system": "A2780 ovarian carcinoma xenografts", "assay": "A2780 xenograft ovarian cancer model", "type": "in vivo, nude mice"}, "[6]": {"system": "CaMKII", "type": "biochemical"}, "[7]": {"biological_target": "T3, Rsk2 (Homo sapiens, UniProt P51812)", "T3 construct": "purchased Upstate", "assay": "Upstate kinase Profiler counter-screening", "type": "biochemical"}, "[8]": {"system": "AMPK", "assay": "Upstate kinase Profiler counter-screening", "type": "biochemical"}, "[9]": {"biological_target": "T4, cSRC (Homo sapiens, UniProt P12931)", "T4 construct": "purchased Upstate", "T4 sequence (P12931 whole entry, species assumed)": "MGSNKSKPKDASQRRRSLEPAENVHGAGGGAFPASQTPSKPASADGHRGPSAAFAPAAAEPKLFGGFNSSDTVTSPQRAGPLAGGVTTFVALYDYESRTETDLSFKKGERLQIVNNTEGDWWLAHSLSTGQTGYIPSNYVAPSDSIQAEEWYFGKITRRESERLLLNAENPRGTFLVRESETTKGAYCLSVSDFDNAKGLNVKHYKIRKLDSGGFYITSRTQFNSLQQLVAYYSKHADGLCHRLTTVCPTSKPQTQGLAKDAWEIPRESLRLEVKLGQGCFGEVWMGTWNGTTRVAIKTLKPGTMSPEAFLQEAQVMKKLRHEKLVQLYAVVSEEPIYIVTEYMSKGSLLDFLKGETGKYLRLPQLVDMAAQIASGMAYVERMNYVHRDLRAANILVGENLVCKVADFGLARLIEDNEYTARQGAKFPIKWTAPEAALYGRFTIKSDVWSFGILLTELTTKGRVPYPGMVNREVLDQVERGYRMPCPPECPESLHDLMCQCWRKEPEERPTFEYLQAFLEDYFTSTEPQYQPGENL", "assay": "Upstate kinase Profiler counter-screening", "type": "biochemical"}, "[10]": {"biological_target": "T5, PKCθ (Homo sapiens, UniProt Q04759)", "T5 construct": "purchased Upstate", "assay": "Upstate kinase Profiler counter-screening", "type": "biochemical"}, "[11]": {"biological_target": "T6, MSK1 (Homo sapiens, UniProt O75582)", "T6 construct": "purchased Upstate", "T6 sequence (O75582 whole entry, species assumed)": "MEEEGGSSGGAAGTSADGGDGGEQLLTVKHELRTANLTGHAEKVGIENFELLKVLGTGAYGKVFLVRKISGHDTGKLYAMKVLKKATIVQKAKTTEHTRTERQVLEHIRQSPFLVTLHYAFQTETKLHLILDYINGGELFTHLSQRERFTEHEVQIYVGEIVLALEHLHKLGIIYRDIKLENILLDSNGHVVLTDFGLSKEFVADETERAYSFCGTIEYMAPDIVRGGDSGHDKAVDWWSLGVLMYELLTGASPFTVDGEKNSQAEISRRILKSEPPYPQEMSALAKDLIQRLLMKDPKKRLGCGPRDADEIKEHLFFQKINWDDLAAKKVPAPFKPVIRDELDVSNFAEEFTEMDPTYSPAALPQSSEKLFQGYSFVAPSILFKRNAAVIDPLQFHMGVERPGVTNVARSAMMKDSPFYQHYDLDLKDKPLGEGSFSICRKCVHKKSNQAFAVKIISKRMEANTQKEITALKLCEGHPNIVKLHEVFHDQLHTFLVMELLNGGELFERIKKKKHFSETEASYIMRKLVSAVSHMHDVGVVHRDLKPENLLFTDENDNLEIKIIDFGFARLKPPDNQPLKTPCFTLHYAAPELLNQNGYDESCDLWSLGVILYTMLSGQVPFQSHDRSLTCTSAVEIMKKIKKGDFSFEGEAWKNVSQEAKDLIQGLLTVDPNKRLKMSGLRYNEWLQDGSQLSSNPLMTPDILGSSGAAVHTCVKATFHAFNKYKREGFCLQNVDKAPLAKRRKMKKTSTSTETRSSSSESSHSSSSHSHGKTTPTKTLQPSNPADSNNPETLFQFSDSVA", "assay": "Upstate kinase Profiler counter-screening", "type": "biochemical"}, "[12]": {"assay": "in vivo", "conditions": "nude, mouse, ip"}, "[13]": {"biological_target": "T7, PKCβII (Homo sapiens, UniProt P05771)", "T7 construct": "purchased Upstate", "T7 sequence (P05771 1-673 isoform P05771-2)": "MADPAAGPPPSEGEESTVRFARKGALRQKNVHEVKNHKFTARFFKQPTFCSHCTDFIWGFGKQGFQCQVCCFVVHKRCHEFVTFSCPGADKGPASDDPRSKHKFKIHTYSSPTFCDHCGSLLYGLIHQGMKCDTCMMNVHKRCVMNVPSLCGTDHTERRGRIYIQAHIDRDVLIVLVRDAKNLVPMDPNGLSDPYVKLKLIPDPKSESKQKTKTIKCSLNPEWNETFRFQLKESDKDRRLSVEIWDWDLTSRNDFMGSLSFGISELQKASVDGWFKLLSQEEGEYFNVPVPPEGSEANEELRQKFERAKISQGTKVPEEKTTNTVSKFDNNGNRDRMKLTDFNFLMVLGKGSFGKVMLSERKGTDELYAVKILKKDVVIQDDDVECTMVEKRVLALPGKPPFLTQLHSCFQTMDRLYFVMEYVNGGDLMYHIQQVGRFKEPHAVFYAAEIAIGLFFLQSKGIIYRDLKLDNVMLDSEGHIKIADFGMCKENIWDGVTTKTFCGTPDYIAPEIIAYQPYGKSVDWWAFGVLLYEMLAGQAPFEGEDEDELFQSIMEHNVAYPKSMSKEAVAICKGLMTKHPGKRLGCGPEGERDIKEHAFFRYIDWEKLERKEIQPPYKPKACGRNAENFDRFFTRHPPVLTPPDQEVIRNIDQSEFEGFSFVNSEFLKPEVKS", "assay": "Upstate kinase Profiler counter-screening", "type": "biochemical"}, "[14]": {"biological_target": "T8, YES (Homo sapiens, UniProt P07947)", "T8 construct": "purchased Upstate", "T8 sequence (P07947 whole entry, species assumed)": "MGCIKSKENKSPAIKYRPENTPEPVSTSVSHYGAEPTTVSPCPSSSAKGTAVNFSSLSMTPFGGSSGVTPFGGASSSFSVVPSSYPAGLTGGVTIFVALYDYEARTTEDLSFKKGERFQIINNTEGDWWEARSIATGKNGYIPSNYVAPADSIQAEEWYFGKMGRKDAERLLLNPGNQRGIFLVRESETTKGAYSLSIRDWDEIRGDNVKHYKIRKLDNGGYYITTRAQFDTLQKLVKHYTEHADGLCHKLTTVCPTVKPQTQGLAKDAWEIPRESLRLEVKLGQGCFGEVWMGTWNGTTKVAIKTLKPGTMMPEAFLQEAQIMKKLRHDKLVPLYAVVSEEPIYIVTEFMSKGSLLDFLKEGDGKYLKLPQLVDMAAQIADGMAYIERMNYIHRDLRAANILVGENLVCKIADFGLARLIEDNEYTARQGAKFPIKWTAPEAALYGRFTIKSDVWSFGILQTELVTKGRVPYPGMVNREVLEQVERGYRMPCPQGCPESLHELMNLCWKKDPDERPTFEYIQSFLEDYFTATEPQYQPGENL", "assay": "Upstate kinase Profiler counter-screening", "type": "biochemical"}, "[15]": {"biological_target": "T9, CDK6/cyclinD3 (Homo sapiens, UniProt Q00534)", "T9 construct": "purchased Upstate", "T9 sequence (Q00534 whole entry, species assumed)": "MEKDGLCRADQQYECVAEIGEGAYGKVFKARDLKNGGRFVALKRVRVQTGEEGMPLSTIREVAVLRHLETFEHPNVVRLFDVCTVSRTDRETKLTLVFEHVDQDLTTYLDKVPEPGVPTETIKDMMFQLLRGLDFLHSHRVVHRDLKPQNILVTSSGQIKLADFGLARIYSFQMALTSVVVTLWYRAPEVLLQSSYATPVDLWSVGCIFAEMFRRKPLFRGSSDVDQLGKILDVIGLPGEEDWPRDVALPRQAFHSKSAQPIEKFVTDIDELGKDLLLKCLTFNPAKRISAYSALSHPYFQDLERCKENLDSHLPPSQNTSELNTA", "T9 sequence (P30281 whole entry partner, species assumed)": "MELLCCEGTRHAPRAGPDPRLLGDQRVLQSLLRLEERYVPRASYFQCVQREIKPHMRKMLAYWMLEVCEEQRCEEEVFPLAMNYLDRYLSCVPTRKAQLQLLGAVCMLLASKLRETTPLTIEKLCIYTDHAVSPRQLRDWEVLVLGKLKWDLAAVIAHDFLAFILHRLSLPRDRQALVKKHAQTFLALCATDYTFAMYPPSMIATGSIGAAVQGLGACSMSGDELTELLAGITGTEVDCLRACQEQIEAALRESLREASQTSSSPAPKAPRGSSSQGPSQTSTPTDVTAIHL", "assay": "Upstate kinase Profiler counter-screening", "type": "biochemical"}, "[16]": {"biological_target": "T10, Lyn (Homo sapiens, UniProt P07948)", "T10 construct": "purchased Upstate", "T10 sequence (P07948 whole entry, species assumed)": "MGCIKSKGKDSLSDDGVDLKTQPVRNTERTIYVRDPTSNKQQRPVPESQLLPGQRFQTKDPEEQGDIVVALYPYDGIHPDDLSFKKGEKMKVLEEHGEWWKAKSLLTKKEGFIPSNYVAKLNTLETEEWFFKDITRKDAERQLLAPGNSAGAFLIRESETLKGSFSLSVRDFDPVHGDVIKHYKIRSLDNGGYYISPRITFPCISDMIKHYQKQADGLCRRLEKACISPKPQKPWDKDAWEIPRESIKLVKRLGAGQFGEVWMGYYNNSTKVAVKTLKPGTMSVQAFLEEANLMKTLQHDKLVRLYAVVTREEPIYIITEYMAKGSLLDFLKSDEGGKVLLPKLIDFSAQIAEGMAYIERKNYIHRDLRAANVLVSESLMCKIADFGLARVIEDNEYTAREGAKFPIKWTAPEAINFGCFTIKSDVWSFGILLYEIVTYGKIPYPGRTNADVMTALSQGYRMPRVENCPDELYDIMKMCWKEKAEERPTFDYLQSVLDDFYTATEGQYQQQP", "assay": "Upstate kinase Profiler counter-screening", "type": "biochemical"}, "[17]": {"biological_target": "T11, Fes (Homo sapiens, UniProt P07332)", "T11 construct": "purchased Upstate", "assay": "Upstate kinase Profiler counter-screening", "type": "biochemical"}, "[18]": {"biological_target": "T12, CDK7/cyclinH/MAT1 (Homo sapiens, UniProt P50613)", "T12 construct": "purchased Upstate", "assay": "Upstate kinase Profiler counter-screening", "type": "biochemical"}, "[19]": {"system": "H82 (SCLC)", "assay": "xenograft tumor model", "conditions": "mouse, in vivo"}, "[20]": {"system": "A549 NSCLC xenografts", "conditions": "mouse, in vivo"}}, "note": "pIC50: −log10 of the molar value. Read-outs that look alike come from different tables or passages of the source.", "data": [{"smiles": "CN1CC[C@H](c2c(O)cc(O)c3c(=O)cc(-c4ccccc4Cl)oc23)[C@H](O)C1", "note": "[Formula III, Flavopiridol, reference compound]", "values": [{"measurement": "remaining activity at 1 µM", "setting": "[1]; at 1 μM", "value": 66, "unit": "%"}, {"measurement": "remaining activity at 10 µM", "setting": "[1]; at 10 μM", "value": 20, "unit": "%"}, {"measurement": "concentration required to induce detectable effects on phospho-Ser 807/811 levels", "setting": "[2]", "value": "about 1 micromolar"}, {"measurement": "pIC50", "setting": "[3]", "value": 7.15}, {"measurement": "remaining activity at 1 µM", "setting": "[4]; at 1 μM", "value": 45, "unit": "%"}, {"measurement": "remaining activity at 10 µM", "setting": "[4]; at 10 μM", "value": 9, "unit": "%"}, {"measurement": "MED", "setting": "[5]; once per day IP for 7 days, dose inducing at least 50% inhibition of tumor growth", "value": 10, "unit": "mg/kg"}, {"measurement": "% remaining activity", "setting": "[6]; at 1 μM", "value": 44, "unit": "%"}, {"measurement": "% remaining activity", "setting": "[6]; at 10 μM", "value": 30, "unit": "%"}, {"measurement": "remaining activity at 1 µM", "setting": "[7]; at 1 μM", "value": 65, "unit": "%"}, {"measurement": "remaining activity at 10 µM", "setting": "[7]; at 10 μM", "value": 18, "unit": "%"}, {"measurement": "% remaining activity", "setting": "[8]; at 1 μM", "value": 67, "unit": "%"}, {"measurement": "% remaining activity", "setting": "[8]; at 10 μM", "value": 20, "unit": "%"}, {"measurement": "remaining activity at 1 µM", "setting": "[9]; at 1 μM", "value": 3, "unit": "%"}, {"measurement": "remaining activity at 10 µM", "setting": "[9]; at 10 μM", "value": 4, "unit": "%"}, {"measurement": "remaining activity at 1 µM", "setting": "[10]; at 1 μM", "value": 23, "unit": "%"}, {"measurement": "remaining activity at 10 µM", "setting": "[10]; at 10 μM", "value": 5, "unit": "%"}, {"measurement": "remaining activity at 1 µM", "setting": "[11]; at 1 μM", "value": 74, "unit": "%"}, {"measurement": "remaining activity at 10 µM", "setting": "[11]; at 10 μM", "value": 37, "unit": "%"}, {"measurement": "MTD at 7 days", "setting": "[12]", "value": "< 10", "unit": "mg/kg"}, {"measurement": "remaining activity at 1 µM", "setting": "[13]; at 1 μM", "value": 75, "unit": "%"}, {"measurement": "remaining activity at 10 µM", "setting": "[13]; at 10 μM", "value": 26, "unit": "%"}, {"measurement": "remaining activity at 1 µM", "setting": "[14]; at 1 μM", "value": 68, "unit": "%"}, {"measurement": "remaining activity at 10 µM", "setting": "[14]; at 10 μM", "value": 40, "unit": "%"}, {"measurement": "remaining activity at 1 µM", "setting": "[15]; at 1 μM", "value": 25, "unit": "%"}, {"measurement": "remaining activity at 10 µM", "setting": "[15]; at 10 μM", "value": 6, "unit": "%"}, {"measurement": "remaining activity at 1 µM", "setting": "[16]; at 1 μM", "value": 73, "unit": "%"}, {"measurement": "remaining activity at 10 µM", "setting": "[16]; at 10 μM", "value": 18, "unit": "%"}, {"measurement": "remaining activity at 1 µM", "setting": "[17]; at 1 μM", "value": 44, "unit": "%"}, {"measurement": "remaining activity at 10 µM", "setting": "[17]; at 10 μM", "value": 13, "unit": "%"}, {"measurement": "remaining activity at 1 µM", "setting": "[18]; at 1 μM", "value": 18, "unit": "%"}, {"measurement": "remaining activity at 10 µM", "setting": "[18]; at 10 μM", "value": 6, "unit": "%"}]}, {"smiles": "N.N.O=C([O-])C1(C(=O)[O-])CCC1.[Pt+2]", "note": "[carboplatin, reference compound]", "values": [{"measurement": "% inhibition observed with benchmark cytotoxic agent", "setting": "[19]", "value": 40, "unit": "%"}]}, {"smiles": "CC(=O)O[C@H]1C(=O)[C@@]2(C)[C@H]([C@H](OC(=O)c3ccccc3)[C@]3(O)C[C@H](OC(=O)[C@H](O)[C@@H](NC(=O)c4ccccc4)c4ccccc4)C(C)=C1C3(C)C)[C@]1(OC(C)=O)CO[C@@H]1C[C@@H]2O", "note": "[paclitaxel, reference compound]", "values": [{"measurement": "tumor growth inhibited", "setting": "[5]; 20 mg/kg IP twice weekly, ten day period", "value": 63, "unit": "%"}, {"measurement": "% inhibition observed with benchmark cytotoxic agent", "setting": "[20]", "value": 0, "unit": "%"}]}]}
